Reference: patent US20250275986A1, “COMBINATION OF A KETONE BODY OR KETOGENIC COMPOUND WITH AN ANALGESIC OR ANTIOXIDANT” (KETOSWISS AG, priority 2021, published 2025)

Test system: headache during an acute migraine attack
Test: Intensity of the headache (visual analogue scale 0 to 10) during acute migraine attacks in one migraine patient after intake of the substance(s)
Type: in vivo, human
Experimental: During the course of the trial, the patient had 17 recorded acute migraine attacks which were treated by either one of the following nine treatment regimes: • 1. 13 g flavoured mix of β-hydroxbutyrate (βHB) mineral salts termed “MigraKet” (a ketone body) • 2. 500 mg acetylsalicylic acid (a simple analgesic) • 3. 400 mg ibuprofen (a simple analgesic) • 4. 13 g MigraKet+500 mg acetylsalicylic acid (combination of a ketone body and a simple analgesic) • 5. 13 g MigraKet+400 mg ibuprofen (combination of a ketone body and a simple analgesic) • 6. 2.5 mg frovatriptan (a triptan) • 7. 13 g MigraKet+2.5 mg frovatriptan (combination of a ketone body and a triptan) • 8. 9 mg melatonin • 9. 13 g MigraKet+9 mg melatonin (combination of a ketone body and an antioxidant such as melatonin) The “MigraKet” consisted of:
10g of a sodium, potassium, magnesium and calcium D-βHB mineral mix in a 1:1:2:2 ratio, and 3g of flavour (malic acid and natural lemon and lime flavour sweetend by stevia), dissolved in 0.51 of still water.
The intensity of the headache (pain) was recorded at the time of intake of the substance(s) (0h), and at five subsequent time-points during the course of one day (2h, 4 h, 8h, 12 h, 24h after substance intake). The intensity of the headache (pain) was categorized on a visual analogue scale from 0 (“no pain”) to 10 (“worst pain imaginable”). […]

Row | SMILES | time for which the headache was eliminated (after intake, melatonin with βHB: in 1 out of 2 instances, b14: taken when intensity about 0 to about 4) | effect on the headache in words (over the course of 24 hours)
1 | CN[C@@H]1CCc2[nH]c3ccc(C(N)=O)cc3c2C1 [Frovatriptan, frovatriptan] | less than 12 h | 
2 | COc1ccc2[nH]cc(CCNC(C)=O)c2c1 [Melatonin, N-[2-(5-Methoxyindol-3-yl)ethyl]acetamid] |  | did not ameliorate the headache
